# Source: patent publication US7879835B2 (Korea Research Institute of Chemical Technology, priority 2004, dated 2011)
# Key:
# rats = assay: In vivo acute toxicity test (LD50); conditions: single dose, 2 weeks observation
# Protocol: In order to determine the acute toxicities of the compounds prepared in Examples, 6-week old specific pathogen-free (SPF) rats each weighing […] were divided into groups of 10 rat each.
# In case of subcutaneous administration, each of the compounds was dissolved in 5% PEG400 solution to a concentration of 20 mg/ml, the resulting solution was serially diluted with 5% PEG400 solution to concentrations of 5, 2.5, 1.25 and 0.625 mg/ml, and the dilutions were subcutaneously injected once to the rats at a dose of 10 ml/kg body weight.
# In case of oral administration, each of the compounds was dissolved in soybean oil to a concentration of 180 mg/ml, the resulting solution was serially diluted with soybean oil to concentrations of 80, 20 and 5 mg/ml, and the dilutions were orally administered once to the rats at a dose of 20 ml/kg body weight. […]
# During 2 weeks after the administration of the compounds, the death rate, clinical symptoms and weight changes of the rats were observed, and hematological and biochemical tests on blood samples were performed. Then, the rats were sacrificed and the internal organs were visually examined to check any abnormal signs in the organs of chest and abdomen.
# [1] = In vitro pharmacokinetics: metabolic stability in liver microsome; format: in vitro ADME; conditions: human liver microsome 1 mg/ml, 20 μM compound; for half-life at 20 µM: liver microsomes
# Protocol: Metabolic stabilities of the compounds of the Examples were examined by employing microsome samples prepared from the human liver.
# Each 20 μM of the compounds were reacted with 1 mg/ml of liver microsome and the half-lives and one-hour stabilities of the compounds were determined.
# osteoclasts = assay: Inhibitory effect on resorption activity of osteoclast (resorption pit area on calcium phosphate-coated plate); format: cell-based, mice; conditions: compared to control
# Protocol: After finishing culture, the plate was washed with distilled water, and 50 μl/well of 5% sodium hypochlorite was added to the plate. The plate was let alone for 5 min, washed again with distilled water to remove the adherent cells, and dried at room temperature. Then, the area of formed resorption pits was calculated by means of Image Pro Plus software (Media Cybernetics Ver. 3.0).
# [2] = system: female mice with osteoporosis induced by ovariectomy; assay: Bone mineral density (BMD) of ovariectomized multiparous mice; format: in vivo; conditions: for decrease of BMD: after 8 weeks
# Protocol: The effect of Compound Nos. 274 and 388 of the present invention on BMD of female mice with osteoporosis induced by ovariectomy was examined as follows.
# Specifically, after anesthetizing female mice used as a control by abdominal administration with a mixture of 10 mg/kg body weight of Ketamin HCl (Ketara) and 0.15 ml/kg body weight of 2% Xylazine HCl (Roupun), the lumbar dorsum of each mouse was shaved bilaterally and the exposed skin was prepared for aseptic surgery by a 10% povidone-iodine scrub followed by a 70% alcohol wipe. A 1-cm incision was made in the central region of the abdomen, and the ovaries were identified with caution not to damage the main organs such as the liver and diaphragm. The ovaries were ligated with a suture thread, and then severed. Thereafter, each organ was relocated to its original position, and the incision was closed with a suture thread in an interrupted pattern. After ovariectomy, the mice were injected with 0.088 mg/kg body weight of gentamicin to prevent infection.
# To investigate the change in BMD of the mice, bone mineral density was measured before the ovariectomy and every two weeks for 8 weeks after the ovariectomy using a bone mineral densitometer, XCT 540 Research SA (Stratec, Germany). Specifically, BMD measurement was made at a voxel size of 0.1 mm×0.1 mm, threshold values of 280 mg/cm^2 for cancellous bone and 500 mg/cm^2 for compact bone, and the analysis sites at the proximal tibias were determined by Scout scans (10 mm/sec). BMD was measured at three slices at the determined sites by CT scans (7 mm/sec), and the measurement was performed twice or more at the same site.
# Multiparous mice each weighing […] were subjected to ovariectomy in accordance with the method of (3-1). From the 2nd day to 12th week after the ovariectomy, the mice were injected subcutaneously once a day with 0.5 and 1 mg/kg body weight/day of Compound Nos. 274 and 388, respectively. Alternatively, the mice were administered orally with 2.5 and 7.5 mg/kg body weight/day of Compound Nos. 274 and 388. BMD was measured before the ovariectomy, and during the period of the 2nd week to 11th week after the ovariectomy.
SMILES,LD50 (rats; PO),LD50 (rats; SC) [mg/kg body weight],One-hour stability [1] [%],half-life at 20 µM [1] [min],Reduction (%) of the resorption pit area of osteoclasts (osteoclasts; 0.3 uM) [%],Reduction (%) of the resorption pit area of osteoclasts (osteoclasts; 1 uM) [%],Reduction (%) of the resorption pit area of osteoclasts (osteoclasts; 3 uM) [%],"increase of BMD ([2]; oral administration (2.5 and 7.5 mg/kg body weight/day), FIGS. 1a and 1b) [%]","change of BMD ([2]; subcutaneous injection once a day (0.5 and 1 mg/kg body weight/day), FIGS. 1a and 1b)",decrease of BMD ([2]; oral administration 2.5 mg/kg) [%],decrease of BMD ([2]; oral administration 7.5 mg/kg) [%],decrease of BMD ([2]; subcutaneous injection 0.5 mg/kg) [%],decrease of BMD ([2]; subcutaneous injection 1 mg/kg) [%]
"CO/C=C(/C(=O)OC)c1ccc(Cl)cc1COc1ccc(OCCOC)cc1 [Compound No. 274, (E)-methyl-2-(2-((4-(2-methoxyethoxy)phenoxy)methyl)-4-chlorophenyl)-3-methoxyacrylate]",460 mg/kg body weight,11,72,> 180,100,100,100,0.8,no decrease of BMD,–,–,–,–
"CO/C=C(/C(=O)OC)c1ccccc1COc1cccc(N2CCCCC2)c1 [Compound No. 388, (E)-methyl-2-[2-((3-(piperidin-1-yl)phenoxy)methyl)phenyl]-3-methoxyacrylate]",110-130 mg/kg body weight,–,–,30.7,–,–,–,–,–,10.6,10.2,5.0,6.7
